System: Nucleic Acid
Experiment: Binding affinity to Bacillus subtilis AM1A C11U antiterminator model RNA variant assessed as increase in fluorescence by FRET assay relative to control
Assay type: nucleic-acid assay
Design: concentration or dose not given beside the values

SMILES | Activity [%]
O=C1N[C@H](CN2CCN(c3ccccc3)CC2)[C@@H](COC(=O)c2ccccc2I)O1 | 22.4
O=C(NCc1ccccc1)OC[C@H]1OC(=O)N[C@@H]1CN1CCN(c2ccccc2)CC1 | 11.7
O=C(CCCCCc1ccccc1)OC[C@H]1OC(=O)N[C@@H]1CN1CCN(c2ccccc2)CC1 | 30.9
O=C(Nc1cccc([N+](=O)[O-])c1)OC[C@H]1OC(=O)N[C@@H]1CN1CCN(c2ccccc2)CC1 | 0.2
COc1ccc(NC(=O)OC[C@H]2OC(=O)N[C@@H]2CN2CCN(c3ccccc3)CC2)cc1 | 7.7
CC(C)(C)OC(=O)N[C@H](C(=O)OC[C@H]1OC(=O)N[C@@H]1CN1CCN(c2ccccc2)CC1)c1ccccc1 | 19.4
O=C1N[C@H](CN2CCN(c3ccccc3)CC2)[C@@H](COC(=O)c2ccc([N+](=O)[O-])cc2)O1 | 15.2
O=C1N[C@H](CN2CCN(c3ccccc3)CC2)[C@@H](COC(=O)c2ccccc2Cl)O1 | 28.8
O=C(Nc1ccccc1)OC[C@H]1OC(=O)N[C@@H]1CN1CCN(c2ccccc2)CC1 | 11.2
Cc1cccc(C(C)(C)C)c1NC(=O)OC[C@H]1OC(=O)N[C@@H]1CN1CCN(c2ccccc2)CC1 | 15.4

The remaining lines, values ahead:

Activity [%] | SMILES
13.2 | CC(C)(C)C(=O)OC[C@H]1OC(=O)N[C@@H]1CN1CCN(c2ccccc2)CC1
27.7 | CC(C)(C)OC(=O)NCCCCC(=O)OC[C@H]1OC(=O)N[C@@H]1CN1CCN(c2ccccc2)CC1
29 | O=C(CCCC1CCCCC1)OC[C@H]1OC(=O)N[C@@H]1CN1CCN(c2ccccc2)CC1
20.2 | CC(C)CCC(=O)OC[C@H]1OC(=O)N[C@@H]1CN1CCN(c2ccccc2)CC1
27.1 | CN(C)c1cccc(C(=O)OC[C@H]2OC(=O)N[C@@H]2CN2CCN(c3ccccc3)CC2)c1
20.7 | O=C1N[C@H](CN2CCN(c3ccccc3)CC2)[C@@H](COC(=O)C2CCCCC2)O1
28.9 | O=C(Cc1ccc(Cl)c(Cl)c1)OC[C@H]1OC(=O)N[C@@H]1CN1CCN(c2ccccc2)CC1
42.4 | CC(C)=CCCC(C)CC(=O)OC[C@H]1OC(=O)N[C@@H]1CN1CCN(c2ccccc2)CC1 (some centres not stated)
24.7 | COc1cccc(C(=O)OC[C@H]2OC(=O)N[C@@H]2CN2CCN(c3ccccc3)CC2)c1
8.7 | CC(C)(C)NC(=O)OC[C@H]1OC(=O)N[C@@H]1CN1CCN(c2ccccc2)CC1
26.1 | O=C(CCc1ccccc1)OC[C@H]1OC(=O)N[C@@H]1CN1CCN(c2ccccc2)CC1
25.4 | CCCCCCCC(=O)OC[C@H]1OC(=O)N[C@@H]1CN1CCN(c2ccccc2)CC1
14 | CCCCNC(=O)OC[C@H]1OC(=O)N[C@@H]1CN1CCN(c2ccccc2)CC1
14 | CC(C)CC(=O)OC[C@H]1OC(=O)N[C@@H]1CN1CCN(c2ccccc2)CC1
19.7 | CCCC(=O)OC[C@H]1OC(=O)N[C@@H]1CN1CCN(c2ccccc2)CC1
14.7 | O=C1N[C@H](CN2CCN(c3ccccc3)CC2)[C@@H](COC(=O)c2ccco2)O1

System: Nucleic Acid
Experiment: Binding affinity to Bacillus subtilis AM1A antiterminator model RNA assessed as increase in fluorescence at 10 uM by FRET assay relative to control
Assay type: nucleic-acid assay

SMILES | Activity [%]
O=C1N[C@H](CN2CCN(c3ccccc3)CC2)[C@@H](COC(=O)c2ccccc2I)O1 | 28.6
O=C(NCc1ccccc1)OC[C@H]1OC(=O)N[C@@H]1CN1CCN(c2ccccc2)CC1 | 6.1
O=C(CCCCCc1ccccc1)OC[C@H]1OC(=O)N[C@@H]1CN1CCN(c2ccccc2)CC1 | 32.6
O=C(Nc1cccc([N+](=O)[O-])c1)OC[C@H]1OC(=O)N[C@@H]1CN1CCN(c2ccccc2)CC1 | -1.1
COc1ccc(NC(=O)OC[C@H]2OC(=O)N[C@@H]2CN2CCN(c3ccccc3)CC2)cc1 | 7.8
CC(C)(C)OC(=O)N[C@H](C(=O)OC[C@H]1OC(=O)N[C@@H]1CN1CCN(c2ccccc2)CC1)c1ccccc1 | 26.7
O=C1N[C@H](CN2CCN(c3ccccc3)CC2)[C@@H](COC(=O)c2ccc([N+](=O)[O-])cc2)O1 | 13.1
O=C1N[C@H](CN2CCN(c3ccccc3)CC2)[C@@H](COC(=O)c2ccccc2Cl)O1 | 30.4
O=C(Nc1ccccc1)OC[C@H]1OC(=O)N[C@@H]1CN1CCN(c2ccccc2)CC1 | 8.4
Cc1cccc(C(C)(C)C)c1NC(=O)OC[C@H]1OC(=O)N[C@@H]1CN1CCN(c2ccccc2)CC1 | 14.8

The next lines start with the values.

Activity [%] | SMILES
7.1 | CC(C)(C)C(=O)OC[C@H]1OC(=O)N[C@@H]1CN1CCN(c2ccccc2)CC1
29.4 | CC(C)(C)OC(=O)NCCCCC(=O)OC[C@H]1OC(=O)N[C@@H]1CN1CCN(c2ccccc2)CC1
31.8 | O=C(CCCC1CCCCC1)OC[C@H]1OC(=O)N[C@@H]1CN1CCN(c2ccccc2)CC1
15 | CC(C)CCC(=O)OC[C@H]1OC(=O)N[C@@H]1CN1CCN(c2ccccc2)CC1
24.6 | CN(C)c1cccc(C(=O)OC[C@H]2OC(=O)N[C@@H]2CN2CCN(c3ccccc3)CC2)c1
19.5 | O=C1N[C@H](CN2CCN(c3ccccc3)CC2)[C@@H](COC(=O)C2CCCCC2)O1
29.1 | O=C(Cc1ccc(Cl)c(Cl)c1)OC[C@H]1OC(=O)N[C@@H]1CN1CCN(c2ccccc2)CC1
38.9 | CC(C)=CCCC(C)CC(=O)OC[C@H]1OC(=O)N[C@@H]1CN1CCN(c2ccccc2)CC1 (some centres not stated)
23.8 | COc1cccc(C(=O)OC[C@H]2OC(=O)N[C@@H]2CN2CCN(c3ccccc3)CC2)c1
8.9 | CC(C)(C)NC(=O)OC[C@H]1OC(=O)N[C@@H]1CN1CCN(c2ccccc2)CC1
20.6 | O=C(CCc1ccccc1)OC[C@H]1OC(=O)N[C@@H]1CN1CCN(c2ccccc2)CC1
18.1 | CCCCCCCC(=O)OC[C@H]1OC(=O)N[C@@H]1CN1CCN(c2ccccc2)CC1
10.5 | CCCCNC(=O)OC[C@H]1OC(=O)N[C@@H]1CN1CCN(c2ccccc2)CC1
9.5 | CC(C)CC(=O)OC[C@H]1OC(=O)N[C@@H]1CN1CCN(c2ccccc2)CC1
10.1 | CCCC(=O)OC[C@H]1OC(=O)N[C@@H]1CN1CCN(c2ccccc2)CC1
6.4 | O=C1N[C@H](CN2CCN(c3ccccc3)CC2)[C@@H](COC(=O)c2ccco2)O1
